For assay [1], the system named is CHO cells. In words: Live cell tRNA:tRNA FRET imaging before and after cycloheximide treatment. In kind it is cell-based. The note with it: CHO cells transfected with rhodamine 110 (donor) and Cy3 (acceptor) labeled bulk yeast tRNA; same cells imaged prior to and following treatment. On the procedure: (§1) Fluorescent labeled tRNA were then introduced into live HEK-293, HeLa and CHO cells, employing a transfection protocol. One day prior to the transfection experiment, the cells were seeded on fibronectin-coated glass slides in a 24-well plate. On the following day, the growth medium was removed and 0.5 ml of fresh medium was added to each well containing the sub-confluent monolayers. 10 minutes later, 0.1 ml of the labeled-tRNA mixed with the transfection reagent and serum-free media were added to each well. The plate was incubated at 37° C. in a 5% CO2 incubator for 6-8 hr, followed by fixation with 4% paraformaldehyde for 20 min and mounting using fluorescent mounting medium. The fixed cells on glass slides were then visualized employing a spinning disk confocal microscope.
(§2) In order to determine the imaging parameters to be employed in the following experiments, including the degree of non-specific signal stemming from the cross-stimulation of different fluorophores, cells were transfected with donor only and with acceptor only, and imaged in the exact conditions employed for the FRET measurement. The calibration coefficients for computing the NFret (corrected FRET) image were NFret=FRET−0.011*donor−0.004*acceptor. […]

Assay [2] concerns HEK cells. The description is as above. The format is cell-based. The note with it: HEK cells transfected with rhodamine 110 (donor) and Cy3 (acceptor) labeled bulk yeast tRNA; same cells imaged prior to and following treatment. On the procedure: as §1, §2
For assay [3], the system named is premature termination codons (PTC). The note with it: genetic disorders with premature termination codons; Welch E M et al, Nature 2007; cited from earlier work.

Consider `C[C@@H]1C[C@@H]([C@H](O)CC2CC(=O)NC(=O)C2)C(=O)[C@@H](C)C1` [cycloheximide], for which the FRET signal intensity entry in assay [1] and in assay [2] was “increase in FRET signal intensity” throughout. Consider `O=C(O)c1cccc(-c2noc(-c3ccccc3F)n2)c1` [PTC124], for which, in assay [3], the “amount of required protein produced” value is 1-5 % of normal concentrations.

The values above are taken from patent US9034576B2, “Systems and methods for measuring translation of target proteins in cells” (ANIMA CELL METROLOGY INC., priority 2009, dated 2015).
